Experimental data taken from patent US20260365663A1, “EMOPAMIL-BINDING PROTEIN INHIBITORS AND USES THEREOF” (BIOGEN MA INC., priority 2022, published 2026).

These compounds were tested against T1, EBP (Homo sapiens, UniProt Q15125) (assay: EBP Functional Assay (EBP immunoaffinity LC-MS assay)). Conditions: not given.
T1 construct: HEK293T cells were utilized as the source of EBP enzyme; endogenous in cells; host or cells: HEK293T
Assay type: biochemical
Protocol: The EBP immunoaffinity (IA) LC-MS assay measures the potency of small molecule inhibitors of EBP by quantifying their concentration-dependent changes in the enzyme's substrate and product using liquid chromatography atmospheric pressure chemical ionization multiple reaction monitoring mass spectrometry (LC-APCI MRM MS). HEK293T cells were utilized as the source of EBP enzyme. The enzyme was incubated with the small molecule inhibitors at variable concentrations for 30 min. Deuterated form of EBP substrate, zymosterol-d5 (Avanti Polar Lipids, Cat #700068P-1 mg), was then added and the plate was incubated at 37 °C for 4 h. Finally, the sterol isomers were extracted and injected to LC-APCI MRM MS. MRM transition used for the quantification for both zymosterol and dihydrolathosterol (substrate and product of EBP enzymatic reaction, respectively) is 372.3-203.2, CE 30 and DP 80 in positive ion mode. Percent conversion of the zymosterol-d5 to dehydrolathosterol-d5 was used to derive IC50 curves. Tasin-1 (1′-[(4-Methoxyphenyl)sulfonyl]-4-methyl-1,4′-bipiperidine, CAS 792927-06-1) was used as the reference small molecule inhibitor.
Percent conversion versus the compound concentration data were fit to the following 4-parameter logistic model to generate IC50 curves: […]

T1 sequence (Q15125 whole entry): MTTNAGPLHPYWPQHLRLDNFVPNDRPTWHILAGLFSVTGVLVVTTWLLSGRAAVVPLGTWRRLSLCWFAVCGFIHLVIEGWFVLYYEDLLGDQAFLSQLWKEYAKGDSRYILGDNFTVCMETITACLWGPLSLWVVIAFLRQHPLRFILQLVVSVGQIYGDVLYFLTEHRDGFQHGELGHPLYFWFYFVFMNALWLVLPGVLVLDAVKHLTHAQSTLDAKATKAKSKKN

SMILES	IC50 [nM]
Cc1nc(C(C)(F)F)ccc1S(=O)(=O)N1CC2(CC(N3CC4(CCO4)C3)C2)C1 [Example 68, 6-(2-((6-(1,1-difluoroethyl)-2-methylpyridin-3-yl)sulfonyl)-2-azaspiro[3.3]heptan-6-yl)-1-oxa-6-azaspiro[3.3]heptane]	500 to 3000
Cc1nc(C(F)(F)F)ncc1S(=O)(=O)N1CC2(CC(N3CC4(COC4)C3)C2)C1 [Example 17, 6-(2-((4-Methyl-2-(trifluoromethyl)pyrimidin-5-yl)sulfonyl)-2-azaspiro[3.3]heptan-6-yl)-2-oxa-6-azaspiro[3.3]heptane]	> 3000

More lines, now with the values ahead:

IC50 [nM]	SMILES
< 100	COc1ccc(S(=O)(=O)N2CC3(CCC(N4CCOCC4)C3)C2)c(C)n1 (stereo not drawn) [Example 48, 4-(2-((6-methoxy-2-methylpyridin-3-yl)sulfonyl)-2-azaspiro[3.4]octan-6-yl)morpholine]
500 to 3000	N#Cc1cc(F)cc(S(=O)(=O)N2CC3(CC[C@@H](N4CCOCC4)C3)C2)c1 [Example 50, (R)-3-Fluoro-5-((6-morpholino-2-azaspiro[3.4]octan-2-yl)sulfonyl)benzonitrile]
100 to 500	Cc1cc(C)c(S(=O)(=O)N2CC3(CCC(N4CCOCC4)C3)C2)cn1 (stereo not drawn) [Example 47, 4-(2-((4,6-Dimethylpyridin-3-yl)sulfonyl)-2-azaspiro[3.4]octan-6-yl)morpholine]
100 to 500	Cc1cc(S(=O)(=O)N2CC3(CCC(N4CCOCC4)C3)C2)n(C)n1 (stereo not drawn) [Example 36, 4-(2-((1,3-Dimethyl-1H-pyrazol-5-yl)sulfonyl)-2-azaspiro[3.4]octan-6-yl)morpholine]
100 to 500	Cc1nn(C)c(S(=O)(=O)N2CC3(CCC(N4CCOCC4)C3)C2)c1C(F)F (stereo not drawn) [Example 38, 4-(2-((4-(Difluoromethyl)-1,3-dimethyl-1H-pyrazol-5-yl)sulfonyl)-2-azaspiro[3.4]octan-6-yl)morpholine]
100 to 500	Cc1nn(C)c(S(=O)(=O)N2CC3(CCC(N4CCOCC4)C3)C2)c1Cl (stereo not drawn) [Example 37, 4-(2-((4-Chloro-1,3-dimethyl-1H-pyrazol-5-yl)sulfonyl)-2-azaspiro[3.4]octan-6-yl)morpholine]
< 100	Cc1nc(Cl)ccc1S(=O)(=O)N1CC2(CCC(N3CCOCC3)C2)C1 (stereo not drawn) [Example 42, 4-(2-((6-Chloro-2-methylpyridin-3-yl)sulfonyl)-2-azaspiro[3.4]octan-6-yl)morpholine]

Same assay, conditions: HEK293T cells as source of EBP enzyme; zymosterol-d5 substrate; inhibitor 30 min, then 37 °C for 4 h; percent conversion to dehydrolathosterol-d5 by LC-APCI MRM MS; read-out: EBP Functional Assay

SMILES	IC50 [nM]
Cc1nc(C(F)(F)F)ncc1S(=O)(=O)N1CC2(CC(N(C)CC3CCOCC3)C2)C1 [Example 83, N-methyl-2-((4-methyl-2-(trifluoromethyl)pyrimidin-5-yl)sulfonyl)-N-((tetrahydro-2H-pyran-4-yl)methyl)-2-azaspiro[3.3]heptan-6-amine]	100 to 500
CN(C1CCC(F)(F)CC1)C1COC2(C1)CN(S(=O)(=O)c1cc(C#N)ccc1F)C2 (stereo not drawn) [Example 59, 3-((7-((4,4-Difluorocyclohexyl)(methyl)amino)-5-oxa-2-azaspiro[3.4]octan-2-yl)sulfonyl)-4-fluorobenzonitrile]	< 100
Cc1nc(C(C)(F)F)ccc1S(=O)(=O)N1CC2(CC(NC3CCOCC3)C2)C1 [Example 2, 2-((6-(1,1-Difluoroethyl)-2-methylpyridin-3-yl)sulfonyl)-N-(tetrahydro-2H-pyran-4-yl)-2-azaspiro[3.3]heptan-6-amine]	< 100
Cc1nc(C(F)(F)F)ncc1S(=O)(=O)N1CC2(CC(NC3COC3)C2)C1 [Example 77, 2-((4-methyl-2-(trifluoromethyl)pyrimidin-5-yl)sulfonyl)-N-(oxetan-3-yl)-2-azaspiro[3.3]heptan-6-amine]	500 to 3000
Cc1nc(C(F)(F)F)ncc1S(=O)(=O)N1CC2(CC(NC3CC4(COC4)C3)C2)C1 (stereo not drawn) [Example 78, 2-((4-methyl-2-(trifluoromethyl)pyrimidin-5-yl)sulfonyl)-N-(2-oxaspiro[3.3]heptan-6-yl)-2-azaspiro[3.3]heptan-6-amine]	100 to 500
CC1CCN(C2COC3(C2)CN(S(=O)(=O)c2ccc(OC(F)F)cc2)C3)CC1 (stereo not drawn) [Example 54, 2-((4-(Difluoromethoxy)phenyl)sulfonyl)-7-(4-methylpiperidin-1-yl)-5-oxa-2-azaspiro[3.4]octane]	100 to 500
Cc1nc(C(C)(F)F)ccc1S(=O)(=O)N1CC2(CC(N(C)C3COC3)C2)C1 [Example 73, 2-((6-(1,1-difluoroethyl)-2-methylpyridin-3-yl)sulfonyl)-N-methyl-N-(oxetan-3-yl)-2-azaspiro[3.3]heptan-6-amine]	100 to 500

Continued, values first:

IC50 [nM]	SMILES
500 to 3000	Cc1nc(C(F)(F)F)ccc1S(=O)(=O)NC1CC2(C1)CN(C1CCOCC1)C2 [Example 18, 2-Methyl-N-(2-(tetrahydro-2H-pyran-4-yl)-2-azaspiro[3.3]heptan-6-yl)-6-(trifluoromethyl)pyridine-3-sulfonamide]
500 to 3000	Cc1cc(S(=O)(=O)N2CC3(CC[C@H](N4CCOCC4)C3)C2)n(C)n1 (single isomer, unassigned) [Example 67]
< 100	Cc1cc(C(F)(F)F)ncc1S(=O)(=O)N1CC2(CC[C@@H](N3CCOCC3)C2)C1 (single isomer, unassigned) [Example 62]
100 to 500	Cn1nc(C(F)(F)F)cc1S(=O)(=O)N1CC2(CC[C@@H](N3CCOCC3)C2)C1 [Example 49, (R)-4-(2-((1-Methyl-3-(trifluoromethyl)-1H-pyrazol-5-yl)sulfonyl)-2-azaspiro[3.4]octan-6-yl)morpholine]
100 to 500	Cn1nc(C(F)(F)F)cc1S(=O)(=O)N1CC2(CC[C@H](N3CCOCC3)C2)C1 [Example 51, (S)-4-(2-((1-methyl-3-(trifluoromethyl)-1H-pyrazol-5-yl)sulfonyl)-2-azaspiro[3.4]octan-6-yl)morpholine]
